Laboratory results published in US11370841B2, “Methods of treating fibroblast growth factor 19-mediated cancers and tumors” (NGM Biopharmaceuticals, Inc., priority 2016, dated 2022).

How the values were obtained:
[1] = system: primary mouse hepatocytes; assay: In vitro pSTAT3 activation in primary mouse hepatocytes; format: cell-based
Procedure: Primary mouse hepatocytes were isolated from 8-10 week old wild type mice (BioReclamation/IVT). Cells were diluted in attachment media, and cells were plated on collagen-coated 6-well plate (Becton Dickinson). Four hours later, cells were changed into M199 media supplemented with 10% FBS, 2 mM glutamine, 100 unit/ml penicillin, 100 unit/ml streptomycin, and cultured for 16 hours at 37° C. When indicated, 50 ng/ml FGF19 protein or 50 ng/ml mouse IL-6 (Peprotech) were added.
Cell extracts were prepared in 50 mM Tris-Cl, PH 7.2, 150 mM NaCl, 1% NP-40, 0.1% SDS, 0.5% sodium deoxycholate supplemented with a protease inhibitor cocktail (Roche) and phosphatase inhibitors (Sigma, phosphatase inhibitor cocktail set 2 and set 3), and protein concentrations were determined by BCA protein assay (Thermo Scientific).
Immunoblotting. Cell or tissue lysates were mixed with 4×SDS sample loading buffer (50 mM Tris-Cl, pH6.8, 2.5% SDS, urea, 4% β-mercaptoethanol), heated for 10 minutes at 95° C., and separated on 4-20% SDS-polyacrylamide gels (Life Technologies) in 1×MOPS running buffer. Proteins were transferred onto PVDF membranes (GE Healthcare). Membranes were blocked in TBST buffer (20 mM Tris-Cl, pH 7.6, 137 mM NaCl, 0.1% Tween-20) containing 5% non-fat dry milk for 1 hour at room temperature, and incubated with anti-pSTAT3^Y705, anti-total STAT3, anti-pERK, anti-total ERK, or anti-β-actin antibodies in blocking buffer at 4° C. overnight. Membranes were washed in TBST extensively, and bound proteins were detected with horseradish peroxidase-conjugated goat-anti-mouse IgG or goat-anti-rabbit IgG antibodies (GE Healthcare) for 1 hour at room temperature. […]
To investigate an in vitro direct effect of FGF19 on STAT3 activation in isolated hepatocytes, pSTAT3^Y705 levels in primary cultures of hepatocytes upon FGF19 stimulation were analyzed by western blotting. […] Cell lysates were prepared at the indicated time points following FGF19 stimulation and analyzed for phosphorylation of the various proteins.

[2] = system: primary human hepatocytes; assay: In vitro BrdU incorporation in primary human hepatocytes; format: cell-based; conditions: purified primary human hepatocytes
Procedure: FIGS. 2A-2E depict non-cell autonomous promotion of hepatocellular proliferation by FGF19. 11 week old mice (n=5 per group) were implanted with osmotic pumps releasing BrdU (8.5 mg/kg/day) and FGF19 protein (0.4 mg/kg/day). Livers were harvested 6 days post-implant. (FIG. 2A) Flow cytometry analysis of BrdU-labeled livers is shown. Representative histograms from hepatocytes stained with 7-ADD and anti-BrdU-APC are shown. (FIG. 2B) BrdU-positive hepatocytes as a percentage of total hepatocytes from vehicle (V)-treated (n=5) or FGF19-treated (n=5) mice were quantified by flow cytometry. (FIG. 2C) Shown are circulating FGF19 levels on day 6 post-implant of osmotic pumps. (FIG. 2D) Lack of proliferative effects of FGF19 on primary mouse hepatocytes. Primary cultures of hepatocytes isolated from mouse liver were incubated with recombinant FGF19 protein at the indicated concentrations for 48 hours and BrdU was added during the last 20 hours of incubation. BrdU incorporation was determined using a luminescence method. Mouse hepatocyte growth factor (mHGF) was included as a positive control. RLU, relative luminescence unit. (FIG. 2E) Lack of proliferative effects of FGF19 on primary human hepatocytes. Primary cultures of hepatocytes isolated from human liver were incubated with recombinant FGF19 protein. Human hepatocyte growth factor (hHGF) was included as a positive control. […]

STAT3 = assay: In vivo pSTAT3 activation, immunoblot of liver lysates; conditions: db/db mice, 1 mg/kg FGF19 i.p.
Procedure: In vivo pSTAT3 activation.
Immunoblotting. Cell or tissue lysates were mixed with 4×SDS sample loading buffer (50 mM Tris-Cl, pH6.8, 2.5% SDS, urea, 4% β-mercaptoethanol), heated for 10 minutes at 95° C., and separated on 4-20% SDS-polyacrylamide gels (Life Technologies) in 1×MOPS running buffer. Proteins were transferred onto PVDF membranes (GE Healthcare). Membranes were blocked in TBST buffer (20 mM Tris-Cl, pH 7.6, 137 mM NaCl, 0.1% Tween-20) containing 5% non-fat dry milk for 1 hour at room temperature, and incubated with anti-pSTAT3^Y705, anti-total STAT3, anti-pERK, anti-total ERK, or anti-β-actin antibodies in blocking buffer at 4° C. overnight. Membranes were washed in TBST extensively, and bound proteins were detected with horseradish peroxidase-conjugated goat-anti-mouse IgG or goat-anti-rabbit IgG antibodies (GE Healthcare) for 1 hour at room temperature. Signals were developed with SuperSignal West Dura extended duration substrate (Thermo Scientific), and captured with a ChemiDoc XrS+ imaging system (Bio-Rad).
To examine STAT3 activation following FGF19 treatment in vivo, 11 week old diabetic db/db mice (on BKS background) were administered with 1 mg/kg of recombinant FGF19 protein i.p., and livers were harvested after 2 hours. Phosphorylation of STAT3 at tyrosine residue 705 (pSTAT3^Y705) was evident by immunoblotting of liver lysates (FIG. 1A). […]

hepatocytes = assay: In vivo BrdU incorporation (osmotic pump, 6 days); set-up: species or system mice
Procedure: In vivo BrdU incorporation. For surgical implant, mice were anesthetized with isoflurane, and osmotic pumps (#1002, Alzet) releasing 8.5 mg/kg/day 5-bromo-2-deoxyuridine (BrdU, Sigma) and 0.4 mg/kg/day FGF19 protein were implanted subcutaneously on the back on day 1. Incisions were closed with surgical clippers and 3-0 silk suture. Mice were euthanized on day 6, and serum and livers were collected for exposure and BrdU incorporation analysis.
Histology and immunohistochemistry. […] Hematoxylin and eosin staining was performed using standard methods. […] When indicated, sections were counterstained with hematoxylin.
Flow cytometry. For quantification of BrdU incorporation by flow cytometry, livers were minced in RPMI media containing 0.1% collagenase for 30 minutes at 37° C. and passed through 70 μm filter. […]. Cells were analyzed on a BD Caliper flow cytometer and data were collected using CellQuest software and analyzed using Flowjo program.
To determine the direct effect of FGF19 on hepatocyte proliferation in a cell autonomous manner, the proliferative effects of FGF19 in vivo and in isolated hepatocytes were compared by assessing the incorporation of 5-bromo-2-deoxyuridine (BrdU) into newly synthesized DNA. FGF19 was administered at a concentration of 0.4 mg/kg/day and BrdU was administered at 8.5 mg/kg/day. After being administered to mice for six days through an osmotic pump, recombinant FGF19 protein induced incorporation of BrdU into hepatocytes as evidenced by immunohistochemical staining (with hematoxylin) and by flow cytometry analysis (hepatocytes were stained with 7-AAD and anti-BrdU-APC) (FIGS. 2A and 2B). […] Plasma concentrations of FGF19 were 5.2±1.2 ng/mL at the end of the study (FIG. 2C).

FGF19: Fibroblast growth factor 19, mature human 194 amino acid polypeptide (SEQ ID NO: 1); recombinant protein or AAV-expressed
STAT3 phosphorylation (pSTAT3 Y705) by western blotting ([1]; isolated mouse hepatocytes, 50 ng/ml): did not enhance STAT3 phosphorylation
Phosphorylation of ERK1 and ERK2 ([1]; primary cultures of mouse hepatocytes): apparent
Proliferative effect (BrdU incorporation) [2]: lack of direct proliferative effect
Phosphorylation of ERK1 and ERK2 in the liver (STAT3; 2 hours): induced phosphorylation
Phosphorylation of STAT3 at tyrosine residue 705 (pSTAT3 Y705) in liver lysates (STAT3; livers harvested after 2 hours): evident
BrdU-positive cells in liver (flow cytometry) (hepatocytes; 20 μg per mouse per day (0.4 mg/kg/day) by osmotic pump, six days): 9.2+1.5%
PCNA and Ki-67 expression (hepatocytes; FGF19-treated mice, osmotic pump, six days): higher
Plasma concentrations of FGF19 at the end of the study (hepatocytes; osmotic pump 0.4 mg/kg/day, day 6): 5.2 ± 1.2 ng/mL
